Test results as given in article PMC2747106 (Journal of veterinary pharmacology and therapeutics, 2009).
Where a name gives a salt, the structure may show the parent alone.

Experiments:
[1] = test system: organic anion transporters (OAT); test: Inhibition study: effect of inhibitors on ES permeation across BME-UV monolayer; format: cell-based, bovine; conditions: inhibitor added to donor compartment
[2] = test system: organic cation transporters (OCT); test: Inhibition study: effect of inhibitors on TEA permeation across BME-UV monolayer; format: cell-based, bovine; conditions: inhibitor added to donor compartment
[3] = test system: human mammary epithelial monolayer; conditions: ref Kimura et al., 2006; cited from earlier work
[4] = test system: mouse mammary epithelial monolayer; conditions: ref Toddywalla et al., 1997; cited from earlier work
[5] = bovine
[6] = test system: organic cation transporters (TEA); organic anion transporters (ES); conditions: bovine
[7] = test system: monolayer of BME-UV cells
[8] = either direction (data not shown)

With `CCCN(CCC)S(=O)(=O)c1ccc(C(=O)O)cc1` [probenecid] the “decrease of permeation rate constant of ES by inhibitor” value ([1]; BL-to-Ap direction only) was “approximately 36%” and the “effect of inhibitor on permeation rate constant of TEA” value [2, 8] was “not changed significantly”.
In the case of `CCN1C(=Cc2ccc3ccccc3[n+]2CC)C=Cc2ccccc21.[I-]` [cyanine, 1,1-Diethyl-2,2-cyanine iodide], the “effect of inhibitor on permeation rate constant of ES” value [1, 8] is reported as “not changed significantly” and the “decrease of permeation rate constant of TEA by inhibitor” value ([2]; BL-to-Ap direction only) is reported as “approximately 49%”.
For `OC[C@@H](O)[C@@H](O)[C@H](O)[C@H](O)CO` [mannitol], the Papp of mannitol [3] is listed as 2.6 ×10⁻⁶ cm/s, the Papp of mannitol [4] is listed as 1.94 ×10⁻⁶ cm/s and the Papp at 4 h, 2 µM [5] is listed as 0.91 ± 0.4 ×10⁻⁶ cm/s.
For `CC[N+](CC)(CC)CC` [TEA, Tetraethylammonium bromide], the Papp A→B at 4 h, 100 µM [6] was 2 ± 0.02 ×10⁻⁶ cm/s, the Papp B→A at 4 h, 100 µM [6] was 5.1 ± 0.4 ×10⁻⁶ cm/s and the “permeation rate constant for TEA relative to ES, Ap-to-BL” value ([7]; Ap-to-BL direction) was 3 times. The “permeation rate constant for TEA relative to ES, BL-to-Ap” value ([7]; BL-to-Ap direction) was 2 times and the Papp at 4 h (in vitro) was 161 ± 18 ×10⁻⁶ cm/s.
In the case of `C[C@]12CC[C@@H]3c4ccc(OS(=O)(=O)O)cc4CC[C@H]3[C@@H]1CCC2=O` [ES, estrone sulfate], the Papp A→B at 4 h, 100 µM [6] is reported as 0.66 ± 0.06 ×10⁻⁶ cm/s, the Papp B→A at 4 h, 100 µM [6] is reported as 2.2 ± 0.1 ×10⁻⁶ cm/s and the Papp at 4 h (in vitro) is reported as 122 ± 34 ×10⁻⁶ cm/s.
